Values quoted from earlier work, collected in patent publication US20200206183A1, “SYSTEMS, METHODS, AND FORMULATIONS FOR TREATING CANCER” (Research Cancer Institute of America, priority 2011, published 2020).

Experiments:
[1] = test system: patients who had cancer deemed no longer treatable by conventional methods
tyrosine kinase = conditions: measured in 11 subjects

Dose concluded for further study ([1]; intravenous) [mg/m2] | Subjects with a decrease in tyrosine kinase levels (tyrosine kinase) [subjects] | Molecule | Suppression as defined by the radiological criteria of WHO ([1]; up to 1700 mg/m2 intravenous for about 3 weeks, 50 patients) | Patients with sustained decreases in unique cancer markers ([1]; up to 1700 mg/m2 intravenous, 50 patients) | Toxicity (patients; oral doses up to 36 grams per day) | Patients with stable disease (patients; stable disease for more than 6 months while on the drug, one study) [%]
≤ 1400 | 9 | O=c1c(O)c(-c2ccc(O)c(O)c2)oc2cc(O)cc(O)c12 [quercetin] | None of the patients achieved suppression | two showed sustained decreases | – | –
– | – | sodium phenylbutyrate [SPB] | – | – | minimal toxicity | 25
